Data reported in the NIST ThermoML archive (doi:10.1016/j.jct.2005.03.020).
± gives the expanded uncertainty stated by the source.

Key:
[1] = 298.15 K; 101.33 kPa; Liquid
[2] = refractive index (Na D-line) (dimensionless); details: 298.15 K; 101.33 kPa; Liquid; Standard Abbe refractometry
[3] = xn = mol fraction of the nth substance listed; details: 298.15 K, 101.33 kPa, Liquid
[4] = excess molar enthalpy (molar enthalpy of mixing); xn = mol fraction of the nth substance listed; details: 298.15 K, 101.33 kPa, Liquid

ClCCCl [1,2-dichloroethane]
Details	mass density [kg/m3]	refractive index
[1]	1245.65 ± 0.46	–
[2]	–	1.442 ± 0.0007

ClCCCCl [1,3-dichloropropane]
Details	mass density [kg/m3]	refractive index
[1]	1178.34 ± 0.8	–
[2]	–	1.4455 ± 0.0008

ClCCCCCl [1,4-dichlorobutane]
Details	mass density [kg/m3]	refractive index
[1]	1133.32 ± 0.72	–
[2]	–	1.452 ± 0.0008

ClCCCCCCl [1,5-dichloropentane]
Details	mass density [kg/m3]	refractive index
[1]	1095.27 ± 0.66	–
[2]	–	1.454 ± 0.0008

ClCCCCCCCl [1,6-dichlorohexane]
Details	mass density [kg/m3]	refractive index
[1]	1063.72 ± 1.2	–
[2]	–	1.4555 ± 0.0008

CCOC(C)=O [ethyl acetate]
Details	mass density [kg/m3]	refractive index
[1]	894.33 ± 0.3	–
[2]	–	1.3692 ± 0.0007

CCCC(=O)OCC [ethyl butanoate]
Details	mass density [kg/m3]	refractive index
[1]	873.54 ± 1.1	–
[2]	–	1.3895 ± 0.0008

CCOC=O [ethyl methanoate]
Details	mass density [kg/m3]	refractive index
[1]	914.17 ± 1.6	–
[2]	–	1.358 ± 0.0009

CCCCC(=O)OCC [ethyl pentanoate]
Details	mass density [kg/m3]	refractive index
[1]	869.42 ± 0.62	–
[2]	–	1.398 ± 0.0008

CCCCC(=O)OCC [ethyl pentanoate] + ClCCCCCl
Details	excess molar enthalpy [kJ/mol]	mass density [kg/m3]
[3], x1 = 0.0426	–	1118.97 ± 0.73
[3], x1 = 0.0881	–	1103.57 ± 0.7
[3], x1 = 0.1345	–	1088.34 ± 0.68
[3], x1 = 0.1844	–	1072.46 ± 0.65
[3], x1 = 0.2407	–	1055.13 ± 0.62
[3], x1 = 0.2932	–	1039.54 ± 0.6
[3], x1 = 0.3462	–	1024.28 ± 0.57
[3], x1 = 0.4021	–	1008.72 ± 0.55
[3], x1 = 0.4541	–	994.67 ± 0.54
[3], x1 = 0.5187	–	977.83 ± 0.55
[3], x1 = 0.5829	–	961.7 ± 0.56
[3], x1 = 0.6452	–	946.59 ± 0.57
[3], x1 = 0.7045	–	932.66 ± 0.58
[3], x1 = 0.7796	–	915.67 ± 0.6
[3], x1 = 0.8521	–	899.89 ± 0.62
[3], x1 = 0.925	–	884.57 ± 0.64
[4], x2 = 0.0443	-0.0154 ± 0.0018	–
[4], x2 = 0.0938	-0.0412 ± 0.0022	–
[4], x2 = 0.1472	-0.0653 ± 0.0026	–
[4], x2 = 0.2021	-0.0957 ± 0.003	–
[4], x2 = 0.2576	-0.133 ± 0.0036	–
[4], x2 = 0.3103	-0.167 ± 0.0042	–
[4], x2 = 0.3615	-0.206 ± 0.0047	–
[4], x2 = 0.4093	-0.231 ± 0.0051	–
[4], x2 = 0.4542	-0.254 ± 0.0055	–
[4], x2 = 0.4637	-0.26 ± 0.0056	–
[4], x2 = 0.5038	-0.269 ± 0.0057	–
[4], x2 = 0.5509	-0.273 ± 0.0058	–
[4], x2 = 0.6143	-0.267 ± 0.0057	–
[4], x2 = 0.6866	-0.247 ± 0.0054	–
[4], x2 = 0.7631	-0.211 ± 0.0048	–
[4], x2 = 0.8429	-0.156 ± 0.004	–
[4], x2 = 0.9262	-0.0846 ± 0.0029	–

CCCCC(=O)OCC [ethyl pentanoate] + ClCCCCl
Details	excess molar enthalpy [kJ/mol]	mass density [kg/m3]
[3], x1 = 0.0395	–	1159.55 ± 0.81
[3], x1 = 0.0785	–	1141.75 ± 0.78
[3], x1 = 0.1207	–	1123.43 ± 0.74
[3], x1 = 0.1642	–	1105.29 ± 0.71
[3], x1 = 0.2098	–	1087.19 ± 0.68
[3], x1 = 0.2576	–	1069.12 ± 0.64
[3], x1 = 0.3081	–	1050.97 ± 0.61
[3], x1 = 0.3623	–	1032.41 ± 0.59
[3], x1 = 0.4179	–	1014.41 ± 0.56
[3], x1 = 0.4804	–	995.25 ± 0.54
[3], x1 = 0.538	–	978.58 ± 0.55
[3], x1 = 0.6036	–	960.5 ± 0.56
[3], x1 = 0.744	–	925.06 ± 0.59
[3], x1 = 0.8249	–	906.38 ± 0.61
[3], x1 = 0.9085	–	888.3 ± 0.63
[4], x2 = 0.0493	-0.0311 ± 0.002	–
[4], x2 = 0.0986	-0.0616 ± 0.0025	–
[4], x2 = 0.1536	-0.0997 ± 0.0031	–
[4], x2 = 0.2082	-0.139 ± 0.0037	–
[4], x2 = 0.261	-0.178 ± 0.0043	–
[4], x2 = 0.3126	-0.218 ± 0.0049	–
[4], x2 = 0.3627	-0.255 ± 0.0055	–
[4], x2 = 0.4084	-0.276 ± 0.0058	–
[4], x2 = 0.4405	-0.291 ± 0.0061	–
[4], x2 = 0.4492	-0.296 ± 0.0061	–
[4], x2 = 0.5044	-0.303 ± 0.0063	–
[4], x2 = 0.5692	-0.303 ± 0.0062	–
[4], x2 = 0.6438	-0.287 ± 0.006	–
[4], x2 = 0.7284	-0.248 ± 0.0054	–
[4], x2 = 0.8181	-0.183 ± 0.0044	–
[4], x2 = 0.9124	-0.103 ± 0.0032	–

CCCCC(=O)OCC [ethyl pentanoate] + ClCCCl
Details	excess molar enthalpy [kJ/mol]	mass density [kg/m3]
[3], x1 = 0.0345	–	1220.93 ± 0.78
[3], x1 = 0.0687	–	1198.23 ± 0.73
[3], x1 = 0.1042	–	1176.06 ± 0.69
[3], x1 = 0.1425	–	1153.66 ± 0.64
[3], x1 = 0.1817	–	1132.12 ± 0.6
[3], x1 = 0.2273	–	1108.84 ± 0.56
[3], x1 = 0.2723	–	1087.35 ± 0.53
[3], x1 = 0.324	–	1064.47 ± 0.49
[3], x1 = 0.3767	–	1042.83 ± 0.46
[3], x1 = 0.4332	–	1021.3 ± 0.44
[3], x1 = 0.4956	–	999.37 ± 0.42
[3], x1 = 0.5633	–	977.31 ± 0.45
[3], x1 = 0.6342	–	956.13 ± 0.49
[3], x1 = 0.7134	–	934.52 ± 0.53
[3], x1 = 0.7992	–	912.89 ± 0.57
[3], x1 = 0.894	–	893.96 ± 0.61
[4], x2 = 0.0371	-0.0298 ± 0.002	–
[4], x2 = 0.098	-0.0613 ± 0.0025	–
[4], x2 = 0.126	-0.102 ± 0.0032	–
[4], x2 = 0.1732	-0.152 ± 0.0039	–
[4], x2 = 0.2196	-0.199 ± 0.0047	–
[4], x2 = 0.2666	-0.257 ± 0.0056	–
[4], x2 = 0.3122	-0.311 ± 0.0064	–
[4], x2 = 0.3542	-0.351 ± 0.007	–
[4], x2 = 0.4265	-0.386 ± 0.0075	–
[4], x2 = 0.4641	-0.396 ± 0.0077	–
[4], x2 = 0.5103	-0.399 ± 0.0077	–
[4], x2 = 0.5638	-0.401 ± 0.0078	–
[4], x2 = 0.626	-0.383 ± 0.0075	–
[4], x2 = 0.7011	-0.342 ± 0.0069	–
[4], x2 = 0.7962	-0.258 ± 0.0056	–
[4], x2 = 0.896	-0.152 ± 0.0039	–

CCOC(=O)CC [ethyl propanoate]
Details	mass density [kg/m3]	refractive index
[1]	884.02 ± 0.6	–
[2]	–	1.3815 ± 0.0008
